Here are results for two compounds from patent US20080154102A1, “Intraoperative imaging methods” (priority 2006, published 2008).

Molecules are shown by their SMILES.

For series [1] the following is noted: in ethylene glycol; cited from earlier work.
A short description of series [2]: Excretion to bile / clearance after injection. The format is in vivo.
Another series can be described thus: Absorbance spectrometry. The following applies: in PBS, Table 2. The format is physicochemical. How it is done:
(§1) Absorbance spectrometry was performed with a 1-cm path length quartz cuvette in a USB2000 fiber-optic spectrometer (Ocean Optics, Dunedin, Fla.). Fluorescence spectrometry was performed with a 1-cm path length, 1.5 mL disposable methacrylate cuvette (Fisher Scientific, Hampton, N.H.) in a HR2000 fiber-optic spectrometer, and CUV-ALL-UV four-way cuvette holder (Ocean Optics), using a 655 nm laser diode light source (OPCOM O.E. Inc., Xiamen, China) with maximum output less than 5 mW. Data acquisition was performed with a computer using an OOI-Base32 spectrometer operating software package (Ocean Optics). The spectral range of the USB2000-FL spectrometer was from 350 to 1000 nm with spectral resolution of 7.6 nm, and that of the HR2000 spectrometer was from 200 to 1100 nm with a spectral resolution of 6.7 nm.

For the next series, the system named is common bile duct. Kind of series: Cholangiographic imaging with ICG, IR-786 and CW800-CA in rats. The format is in vivo. As to conditions: rats, portal vein injection. Here is the method: 50 μL of 100 μM IR-786 or CW800-CA (15 μg/kg), or 1 mM ICG (150 μg/kg), was injected into portal vein in anesthetized rats. A simultaneous color video/NIR fluorescence intraoperative imaging system was employed for quantification of NIR fluorescence images. In another 32 rats, bile duct was visualized by intravenous (N=16) or portal vein injection (N=16) of 50 μL of CW800-CA at 10, 20, 50 and 100 μM to quantify the best concentration for bile duct imaging. Fluorescence intensities of bile duct, liver (right lobe), and pancreas were measured at 3, 5, 10, 20, and 30 min following injection.

A short description of series [3]: Fluorescence spectrometry and fluorescence quantum yield. The format is physicochemical. As to conditions: in PBS, Table 2. How it is done: as §1
Fluorescence intensity was measured in each solvent (PBS, FBS, and methanol) at each concentration of the dye to determine the effect of the methylene blue concentration and solvents on total fluorescence yield. Fluorescence quantum yields of methylene blue in PBS, FBS, and methanol were calculated using oxazine725 in ethylene glycol (quantum yield: 19%) as a calibration standard, under the conditions of matched absorbance of methylene blue in each solvent.

With `CCN(CC)c1ccc2nc3ccc(=[N+](CC)CC)cc-3oc2c1.[O-][Cl+3]([O-])([O-])[O-]` [oxazine725], in series [1], the “quantum yield of calibration standard” value is recorded as 19%.
In the case of `CN1C(=CC=C2CCCC(C=CC3=[N+](C)c4ccccc4C3(C)C)=C2Cl)C(C)(C)c2ccccc21.[O-][Cl+3]([O-])([O-])[O-]` [IR-786], the “clearance after intravenous injection” value in series [2] was “rapidly extracted into many tissues in the body, especially the liver, and is inefficiently transported into bile”. Further, the “Peak Absorbance in PBS” value in the series “Absorbance spectrometry” worked out at 768 nm. Besides, the “dye stacking to the liver” value in the series on common bile duct is “significant dye stacking to the liver”. Further, in series [3], the “Peak Fluorescence in PBS” value is 803 nm and the “Quantum Yield in PBS” value is given as 3.3%.
